Legend:
Rat [1] = experiment: concentration in plasma after dosing; conditions: dosed: Wyeth-14643, 2.0 mg/kg, iv, Male, Sprague-Dawley
Rat [2] = experiment: concentration in plasma after dosing; conditions: dosed: Wyeth-14643, 2.0 mg/kg, iv, Male, Sprague-Dawley; remark: listed apart in the source
Rat [3] = experiment: concentration in plasma after dosing; conditions: dosed: Wyeth-14643, 5.0 mg/kg, oral, Male, Sprague-Dawley
Rat [4] = experiment: concentration in liver after dosing; conditions: 1 h; dosed: Bis 2-Chloroethoxy Methane; 20 mg/kg; iv; Male; F344
Rat [5] = experiment: concentration in plasma after dosing; conditions: 1 h; dosed: Bis 2-Chloroethoxy Methane; 20 mg/kg; iv; Male; F344
Rat [6] = experiment: concentration in thymus after dosing; conditions: 4 h; dosed: Bis 2-Chloroethoxy Methane; 20 mg/kg; iv; Female; F344
Rat [7] = experiment: concentration in thymus after dosing; conditions: 1 h; dosed: Bis 2-Chloroethoxy Methane; 20 mg/kg; iv; Male; F344
Rat [8] = experiment: concentration in plasma after dosing; conditions: dosed: Bis 2-Chloroethoxy Methane, 40 mg/kg, iv, Male, Harlan Sprague Dawley
Rat [9] = experiment: concentration in liver after dosing; conditions: 3 h; dosed: Bis 2-Chloroethoxy Methane; 20 mg/kg; iv; Male; F344
Rat [10] = experiment: concentration in heart after dosing; conditions: 10 min; dosed: Bis 2-Chloroethoxy Methane; 20 mg/kg; iv; Female; F344
Rat [11] = experiment: concentration in plasma after dosing; conditions: 10 h; dosed: Di-n-butyl phthalate; 50 mg/kg; oral; Male; Sprague-Dawley
Rat [12] = experiment: concentration in plasma after dosing; conditions: 0.5 h; dosed: Di-n-butyl phthalate; 100 mg/kg; oral; Male; Sprague-Dawley
Rat [13] = experiment: concentration in plasma after dosing; conditions: 1 h; dosed: Di-n-butyl phthalate; 20 mg/kg; iv; Male; Sprague-Dawley
Rat [14] = experiment: concentration in plasma after dosing; conditions: 5 min; dosed: Di-n-butyl phthalate; 50 mg/kg; oral; Male; Sprague-Dawley
Rat [15] = experiment: concentration in kidney after dosing; conditions: 3360 h; dosed: Perfluorodecanoic acid; 10 mg/kg; oral; Male; Harlan Sprague Dawley
Rat [16] = experiment: concentration in plasma after dosing; conditions: dosed: Perfluorodecanoic acid, 2 mg/kg, iv, Male, F344
Rat [17] = experiment: concentration in plasma after dosing; conditions: dosed: Perfluorodecanoic acid, 2 mg/kg, iv, Male, F344; remark: listed apart in the source
Rat [18] = experiment: concentration in kidney after dosing; conditions: 3360 h; dosed: Perfluorodecanoic acid; 10 mg/kg; oral; Male; Harlan Sprague Dawley; remark: listed apart in the source
Rat [19] = experiment: concentration in kidney after dosing; conditions: 24 h; dosed: Perfluorodecanoic acid; 10 mg/kg; oral; Male; Harlan Sprague Dawley
Rat [20] = experiment: concentration in brain after dosing; conditions: 1848 h; dosed: Perfluorodecanoic acid; 10 mg/kg; oral; Male; Harlan Sprague Dawley
Rat [21] = experiment: concentration in plasma after dosing; conditions: dosed: Perfluorodecanoic acid, 2 mg/kg, iv, Male, F344; remark: listed apart in the source
Rat [22] = experiment: concentration in plasma after dosing; conditions: dosed: Perfluorodecanoic acid, 2 mg/kg, iv, Male, F344; remark: listed apart in the source
Rat [23] = experiment: concentration in plasma after dosing; conditions: 0.25 h; dosed: Primidone; 30 mg/kg; oral; Male; F344
Rat [24] = experiment: concentration in plasma after dosing; conditions: 0.5 h; dosed: Primidone; 80 mg/kg; oral; Female; Harlan Sprague-Dawley
Rat [25] = experiment: concentration in plasma after dosing; conditions: 22 h; dosed: Primidone; 30 mg/kg; oral; Male; F344
Rat [26] = experiment: concentration in plasma after dosing; conditions: 9 h; dosed: Primidone; 30 mg/kg; oral; Female; F344
Rat [27] = experiment: concentration in plasma after dosing; conditions: 20 min; dosed: Thiodiglycolic Acid; 20 mg/kg; iv; Female; F344
Rat [28] = experiment: concentration in heart after dosing; conditions: 40 min; dosed: Thiodiglycolic Acid; 20 mg/kg; iv; Female; Harlan Sprague Dawley
Rat [29] = experiment: concentration in heart after dosing; conditions: 40 min; dosed: Thiodiglycolic Acid; 20 mg/kg; iv; Male; Harlan Sprague Dawley
Rat [30] = experiment: concentration in plasma after dosing; conditions: 3 h; dosed: Thiodiglycolic Acid; 20 mg/kg; iv; Male; Harlan Sprague Dawley
Rat [31] = experiment: concentration in heart after dosing; conditions: 1 h; dosed: Thiodiglycolic Acid; 20 mg/kg; iv; Female; Harlan Sprague Dawley
Rat [32] = experiment: concentration in heart after dosing; conditions: 4 h; dosed: Thiodiglycolic Acid; 20 mg/kg; iv; Male; Harlan Sprague Dawley
Rat [33] = experiment: concentration in plasma after dosing; conditions: 40 min; dosed: dichloroacetic acid; 40 mg/kg; oral; Female; Harlan Sprague Dawley
Rat [34] = experiment: concentration in plasma after dosing; conditions: dosed: dichloroacetic acid, 40 mg/kg, oral, Female, Harlan Sprague Dawley
rat [35] = experiment: concentration in plasma after dosing; negative times count back from the end of exposure; conditions: dosed: trichloroethylene, inhalation, duration: 4 hr, female, F344

Cc1cccc(Nc2cc(Cl)nc(SCC(=O)O)n2)c1C
Conditions | concentration in plasma [ng/mL]
Rat [1], 0.5 h | 5200
Rat [1], 3 h | 338
Rat [2], 4 h | 477
Rat [2], 5 min | 1060
Rat [3], 5 min | 572
Rat [3], 8 h | 255

ClCCOCOCCCl [Bis 2-Chloroethoxy Methane]
Conditions | concentration in heart [ng/g] | concentration in liver [ng/g] | concentration in plasma [ng/mL] | concentration in thymus [ng/g]
Rat [4] | – | 2410 | – | –
Rat [5] | – | – | 1940 | –
Rat [6] | – | – | – | 76.5
Rat [7] | – | – | – | 5370
Rat [9] | – | 104 | – | –
Rat [10] | 12100 | – | – | –

Rat [8]
Conditions | concentration in plasma [ng/mL]
8 h | 15.5
40 min | 6610

CCCCOC(=O)c1ccccc1C(=O)O [Mono-n-butyl phthalate]
Conditions | concentration in plasma [ng/mL]
Rat [11] | 1170
Rat [12] | 55900
Rat [13] | 3480
Rat [14] | 2400

O=C(O)C(F)(F)C(F)(F)C(F)(F)C(F)(F)C(F)(F)C(F)(F)C(F)(F)C(F)(F)C(F)(F)F [Perfluorodecanoic acid]
Conditions | concentration in brain [ng/g] | concentration in kidney [ng/g]
Rat [15] | – | 866
Rat [18] | – | 1240
Rat [19] | – | 29300
Rat [20] | 531 | –

Conditions | concentration in plasma [ng/mL]
Rat [16], 24 h | 5550
Rat [16], 1848 h | 488
Rat [17], 5 min | 8200
Rat [17], 192 h | 3280
Rat [21], 12 h | 4320
Rat [21], 1200 h | 1720
Rat [22], 24 h | 5580
Rat [22], 1848 h | 884

CCC1(c2ccccc2)C(=O)NC(=O)NC1=O [Phenobarbital]
Conditions | concentration in plasma [ng/mL]
Rat [23] | 340
Rat [24] | 1480
Rat [25] | 1030
Rat [26] | 990

O=C(O)CSCC(=O)O [Thiodiglycolic Acid]
Conditions | concentration in heart [ng/g] | concentration in plasma [ng/mL]
Rat [27] | – | 9230
Rat [28] | 3040 | –
Rat [29] | 2020 | –
Rat [30] | – | 696
Rat [31] | 1530 | –
Rat [32] | 989 | –

O=C(O)C(Cl)Cl [dichloroacetic acid]
Conditions | concentration in plasma [ng/mL]
Rat [33] | 10700

Rat [34]
Conditions | concentration in plasma [ng/mL]
1.25 h | 5690
5 min | 4330

O=C(O)C(Cl)(Cl)Cl [trichloroacetic acid]
rat [35]
Conditions | concentration in plasma [ng/mL]
0.2413 h, 600.4 ppm | 25200
0.5005 h, 600.4 ppm | 28200
0.963 h, 600 ppm | 24500
2.113 h, 600 ppm | 33800
4.901 h, 600.4 ppm | 36600
5.077 h, 600 ppm | 46200
20.89 h, 600.4 ppm | 8380
21.02 h, 600 ppm | 25300
28.48 h, 600.4 ppm | 3970
29.96 h, 600 ppm | 14100
30 s, 600 ppm | 21100
44.93 h, 600.4 ppm | 1220
45.37 h, 600 ppm | 8190
241 s, 600.4 ppm | 15900

concentration in plasma [ng/mL], rat [35], during exposure
Conditions | -3.75 h | -3.292 h | -0.5889 h
600 ppm | 5790 | – | –
600.4 ppm | – | 1380 | 15300
